Source: patent US8835461B2, “Substituted 3-hydroxy-4-pyridone derivative” (priority 2009, dated 2014)

target: Cap-dependent endonuclease (CEN); RNP fraction containing PB1•PB2•PA complex (Influenza A virus, UniProt P15659); test: Measurement of cap-dependent endonuclease (CEN) inhibitory activity; format: biochemical, influenza A/WSN/33 virus; conditions: RNP enzyme from A/WSN/33 virus, capped Cy3/BHQ2-labelled 30mer RNA substrate, 60 minutes at room temperature; read-out: CEN IC50

Compound | IC50
O=C(O)c1cn(CC2(c3cccc(C(F)(F)F)c3)CCCC2)cc(O)c1=O [Example 167] | 0.012 µM
O=C(O)c1cn(Cc2ccccc2-c2ccc(NCC3CCCCC3)nc2)cc(O)c1=O [Example 52] | 0.459 µM
O=C(O)c1cn(CC2CCCCN2C(=O)OCc2ccccc2F)cc(O)c1=O (stereo not drawn) [Example 127] | 0.313 µM
O=C(O)c1cn(CC2(c3cccc4ccccc34)CCCC2)cc(O)c1=O [Example 178] | 0.028 µM
O=C(O)c1cn(CC2(c3ccccc3)CCCC2)cc(O)c1=O [Example 112] | 0.061 µM
O=c1c(O)cn(Cc2ccccc2-c2ccc(F)c(Cl)c2)cc1O [Example 222] | 0.513 µM
O=C(NS(=O)(=O)C1CC1)c1cn(Cc2ccccc2-c2ccccc2)cc(O)c1=O [Example 195] | 0.677 µM
N#Cc1ccccc1CN1CCCCC1Cn1cc(O)c(=O)c(C(=O)O)c1 (stereo not drawn) [Example 116] | 0.221 µM
O=C(O)c1cn(CC2(c3ccc4c(c3)OCO4)CCCC2)cc(O)c1=O [Example 171] | 0.016 µM
O=C(O)c1cn(Cc2ccccc2-c2ccccc2)cc(O)c1=O [Example 10] | 0.219 µM
COc1ncc(-c2ccccc2Cn2cc(O)c(=O)c(C(=O)O)c2)cn1 [Example 46] | 0.325 µM
CC(=O)c1ccc(-c2ccccc2Cn2cc(O)c(=O)c(C(=O)O)c2)cc1 [Example 22] | 0.217 µM
O=C(O)c1cn(CC2CCCC2)cc(O)c1=O [Example 18] | 0.845 µM
O=C(O)c1cn(CC2(c3ccccc3)CCOCC2)cc(O)c1=O [Example 183] | 0.177 µM
O=C(O)c1cn(CC2(c3nc4ccccc4s3)CCCC2)cc(O)c1=O [Example 173] | 0.047 µM
O=C(O)c1cn(CC2(c3ccccn3)CCCC2)cc(O)c1=O [Example 177] | 0.11 µM
O=C(O)c1cn(CC2(c3ccccc3)Cc3ccccc3C2)cc(O)c1=O [Example 182] | 0.278 µM
CCCCS(=O)(=O)NC(=O)c1cn(Cc2ccccc2-c2ccccc2)cc(O)c1=O [Example 197] | 0.531 µM
O=C(O)c1cn(CC2(n3ccc4ccccc43)CCCC2)cc(O)c1=O [Example 186] | 0.035 µM
O=C(O)c1cn(C[C@@H]2CCCN2c2ccccc2)cc(O)c1=O [Example 57] | 0.426 µM
O=C(O)c1cn(CC2(n3ccc4cccnc43)CCCC2)cc(O)c1=O [Example 185] | 0.005 µM

same assay, conditions: statement in text following Table 36; same CEN assay; read-out: IC50 (CEN)

Compound | IC50
O=C(O)c1cn(CC2(c3ccnc(NCC4CCCCC4)c3)CCCC2)cc(O)c1=O [Example 239] | ≤ 1 µM
O=C(O)c1cn(CC2(c3ccnc(-n4cccn4)c3)CCCC2)cc(O)c1=O [Example 238] | ≤ 1 µM
CC(C)(Cn1cc(O)c(=O)c(C(=O)O)c1)c1ccccc1 [Example 227] | ≤ 1 µM
O=C(O)c1cn(CC2(C(=O)Nc3ccccc3)CCCC2)cc(O)c1=O [Example 232] | ≤ 1 µM
O=c1c(O)cn(CC2(c3cccc(F)c3)CCCC2)cc1-c1nnn[nH]1 [Example 233] | ≤ 1 µM
Cn1cc(C2(Cn3cc(O)c(=O)c(C(=O)NS(C)(=O)=O)c3)CCCC2)c2ccccc21 [Example 246] | ≤ 1 µM
O=C(O)c1cn(CC2(c3cccc(N4CCCC4=O)c3)CCCC2)cc(O)c1=O [Example 234] | ≤ 1 µM
O=C(O)c1cn(Cc2cccn2-c2ccccc2)cc(O)c1=O [Example 226] | ≤ 1 µM
Cn1cc(C2(Cn3cc(O)c(=O)c(C(=O)O)c3)CCCC2)c2ncccc21 [Example 242] | ≤ 1 µM
O=C(O)c1cn(CC2(c3cccc(N4CCCCC4=O)c3)CCCC2)cc(O)c1=O [Example 235] | ≤ 1 µM
O=C(O)c1cn(CC2(c3cccc(N4CCCS4(=O)=O)c3)CCCC2)cc(O)c1=O [Example 236] | ≤ 1 µM
O=C(O)c1cn(CC2(n3cc(C(F)(F)F)c4cccnc43)CCCC2)cc(O)c1=O [Example 243] | ≤ 1 µM
Cn1cc(C2(Cn3cc(O)c(=O)c(C(=O)O)c3)CCCC2)c2ccccc21 [Example 244] | ≤ 1 µM
O=C(O)c1cn(CC2(C(=O)c3ccccc3)CCCC2)cc(O)c1=O [Example 231] | ≤ 1 µM
O=C(O)c1cn(CC2(n3ccc4cc(Cl)cnc43)CCCC2)cc(O)c1=O [Example 240] | ≤ 1 µM
